The record followed here is patent publication US8629143B2, “Potassium channel modulators” (AbbVie Inc., priority 2009, dated 2014).

In this assay the target is T1, KCNQ 2/3 channels (HEK293 cells stably expressing human KCNQ2 and KCNQ3 subunits) (Homo sapiens, UniProt O43525+O43526).
T1 construct: expressed in transfected cells; host or cells: HEK293
The assay can be described thus: KCNQ2/3 channel activation, thallium flux FLIPR assay with BTC-AM dye. The assay is classed as cell-based. The following applies: for Emax: HEK293, maximum response relative to the response produced by 10 μM retigabine (set at 100%), read-out: Max. %; for EC50: HEK293 cells expressing human KCNQ2 and KCNQ3, thallium flux, FLIPR. On the procedure:
The following example describes the assay that can be used to identify compounds that activate KCNQ 2/3 channels.
HEK293 cells stably expressing human KCNQ2 and KCNQ3 subunits were seeded in 96-well, black-walled, clear-bottomed, poly-D-lysine coated plates (BD Biosciences, Bedford, Mass.) at a density of 1×10^5 cells per well 24 hours before the assay. On the assay day, BTC-AM dye (Invitrogen, Carlsbad, Calif.) was loaded into the cells by replacing the cell culture medium with 55 μL/well of 3 μg/mL dye in DPBS. Dye loading was allowed to proceed for 2 hours at room temperature and then cells were washed twice with 50 μL/well of assay buffer (in mM: 10 HEPES pH 7.3, 5 glucose, 140 Na-gluconate, 2.5 K-gluconate, 3.6 Ca-gluconate, 2 MgSO4, 0.1 Ouabain) to remove unloaded dye. Cells were incubated in 50 μL of assay buffer before loading onto a FLIPR system (Molecular Devices, Sunnyvale, Calif.). Various concentrations of compounds to be assayed were added to the cells in 50 μL of assay buffer and incubated for 4 minutes. The fluorescence signal was initiated by adding 100 μL of assay buffer containing 6 mM TlNO3 and 10 mM K2SO4. Fluors were excited using the 488-nm line of an argon laser and emission was filtered using a 540±30 nm bandpass filter. Fluorescent signals were recorded for 3 minutes. Sums of the responses over basal responses were plotted versus concentrations of test compounds to obtain an EC50 value. The maximum response for each test compound was determined relative to the response produced by 10 μM retigabine. The maximum response of retigabine at 10 μM was set at 100%.

Turning to `O=C(Cc1ccc(Cl)cc1)Nn1nc(C(F)(F)F)c2ccccc2c1=O` [Example 13, 2-(4-chlorophenyl)-N-[1-oxo-4-(trifluoromethyl)phthalazin-2(1H)-yl]acetamide], the Emax was found to be 47% and the EC50 lay in the range of 100 to 500 nM.
For `O=C(Cc1ccc(C(F)(F)F)cc1)Nn1nc(-c2ccc(Cl)cc2)c2ccccc2c1=O` [Example 99, N-[4-(4-chlorophenyl)-1-oxophthalazin-2(1H)-yl]-2-[4-(trifluoromethyl)phenyl]acetamide], the Emax was found to be 81% and the EC50 was in the range of 500 to 1000 nM.
As for `O=C(CC12CC3CC(CC(C3)C1)C2)Nn1nc(-c2ccccc2)c2ccsc2c1=O` [Example 29, 2-(1-adamantyl)-N-(7-oxo-4-phenylthieno[2,3-d]pyridazin-6(7H)-yl)acetamide], the Emax was 173% and the EC50 was in the range of 100 to 500 nM.
On to `CC(C)(C)c1nn(NC(=O)Cc2ccc(Cl)cc2)c(=O)c2ccccc12` [Example 65, N-(4-tert-butyl-1-oxophthalazin-2(1H)-yl)-2-(4-chlorophenyl)acetamide], for which the Emax was found to be 151% and the EC50 lay in the range of 100 to 500 nM.
As for `CC(C)c1nn(NC(=O)CC23CC4CC(CC(C4)C2)C3)c(=O)c2ccccc12` [Example 6, 2-(1-adamantyl)-N-(4-isopropyl-1-oxophthalazin-2(1H)-yl)acetamide], the Emax is 200% and the EC50 is below 100 nM.
For `O=C(Cc1ccccc1)Nn1nc(C(F)(F)F)c2ccccc2c1=O` [Example 57, N-[1-oxo-4-(trifluoromethyl)phthalazin-2(1H)-yl]-2-phenylacetamide], the Emax was determined as 85% and the EC50 fell in the range of 1000 to 10000 nM.
The like results for `COc1cccc(CC(=O)Nn2nc(-c3ccc(Cl)cc3)c3ccccc3c2=O)c1` [Example 105, N-[4-(4-chlorophenyl)-1-oxophthalazin-2(1H)-yl]-2-(3-methoxyphenyl)acetamide] were, in that order, 84% and 100 to 500 nM.
With `Cc1ccc(-c2nn(NC(=O)CC3CC4CCC3C4)c(=O)c3ccccc23)c(C)c1` (racemic) [Example 160, (±)-2-(exo-bicyclo[2.2.1]hept-2-yl)-N-[4-(2,4-dimethylphenyl)-1-oxophthalazin-2(1H)-yl]acetamide], the Emax was 157% and the EC50 is below 100 nM.
Take `O=C(CC12CC3CC(CC(C3)C1)C2)Nn1nc(Cl)c2ccccc2c1=O` [Example 20, 2-(1-adamantyl)-N-(4-chloro-1-oxophthalazin-2(1H)-yl)acetamide]: the Emax came to 123% and the EC50 is 100 to 500 nM.
Turning to `O=C(CC1CC2CCC1C2)Nn1nc(Cc2ccc(Cl)cc2)c2ccccc2c1=O` (racemic) [Example 144, (±)-2-(exo-bicyclo[2.2.1]hept-2-yl)-N-[4-(4-chlorobenzyl)-1-oxophthalazin-2(1H)-yl]acetamide], the Emax was determined as 139% and the EC50 is below 100 nM.
With `O=C(Cc1cc(F)cc(F)c1)Nn1nc(C2CCC2)c2ccccc2c1=O` [Example 69, N-(4-cyclobutyl-1-oxophthalazin-2(1H)-yl)-2-(3,5-difluorophenyl)acetamide], the Emax worked out at 138% and the EC50 is below 100 nM.
With `CC(C)c1nn(NC(=O)CC23CC4CC(CC(F)(C4)C2)C3)c(=O)c2ccccc12` [Example 60, 2-(3-fluoroadamantan-1-yl)-N-(4-isopropyl-1-oxophthalazin-2(1H)-yl)acetamide], the Emax came to 214% and the EC50 was below 100 nM.
As to `Cc1ccc(CC(=O)Nn2nc(C(F)(F)F)c3ccccc3c2=O)s1` [Example 56, 2-(5-methyl-2-thienyl)-N-[1-oxo-4-(trifluoromethyl)phthalazin-2(1H)-yl]acetamide], the Emax was found to be 51% and the EC50 lay within 1000 to 10000 nM.
As to `CC(C)CCC(=O)Nn1nc(-c2ccc(Cl)cc2)c2ccccc2c1=O` [Example 110, N-[4-(4-chlorophenyl)-1-oxophthalazin-2(1H)-yl]-4-methylpentanamide], the Emax came out at 120% and the EC50 was below 100 nM.
With `O=C(CC12CC3CC(CC(C3)C1)C2)Nn1nc(-c2ccccc2)c2cccnc2c1=O` [Example 7, 2-(1-adamantyl)-N-(8-oxo-5-phenylpyrido[2,3-d]pyridazin-7(8H)-yl)acetamide], the Emax is 136% and the EC50 is 1000 to 10000 nM.
Consider `O=C(Cc1ccc2c(c1)OCO2)Nn1nc(-c2ccc(Cl)cc2)c2ccccc2c1=O` [Example 194, 2-(1,3-benzodioxol-5-yl)-N-[4-(4-chlorophenyl)-1-oxophthalazin-2(1H)-yl]acetamide], for which the Emax came to 248% and the EC50 lay in the range of 500 to 1000 nM.
Regarding `O=C(Cc1ccc(Cl)c(F)c1)Nn1nc(-c2ccc(Cl)cc2)c2ccccc2c1=O` [Example 114, 2-(4-chloro-3-fluorophenyl)-N-[4-(4-chlorophenyl)-1-oxophthalazin-2(1H)-yl]acetamide], the Emax worked out at 119% and the EC50 lay in the range of 500 to 1000 nM.
The like results for `COc1ccc(-c2nn(NC(=O)CC34CC5CC(CC(C5)C3)C4)c(=O)c3ccc(Br)cc23)cc1` [Example 175, 2-(adamantan-1-yl)-N-[6-bromo-4-(4-methoxyphenyl)-1-oxophthalazin-2(1H)-yl]acetamide] were, in that order, 13% and above 10000 nM.
For `O=C(Cc1cc(F)cc(F)c1)Nn1nc(Cc2ccc(Cl)cc2)c2ccccc2c1=O` [Example 146, N-[4-(4-chlorobenzyl)-1-oxophthalazin-2(1H)-yl]-2-(3,5-difluorophenyl)acetamide], the Emax was 83% and the EC50 is 100 to 500 nM.
Taken in the same sequence, the figures for `CC1(C)[C@H]2CC[C@@H](CC(=O)Nn3nc(-c4ccc(Cl)cc4)c4ccccc4c3=O)[C@@H]1C2` [Example 115, N-[4-(4-chlorophenyl)-1-oxophthalazin-2(1H)-yl]-2-[(1S,2S,5S)-6,6-dimethylbicyclo[3.1.1]hept-2-yl]acetamide] were 69% and 100 to 500 nM.
`O=C(Cc1ccc(F)cc1)Nn1nc(-c2ccccc2)c2ccsc2c1=O` [Example 32, 2-(4-fluorophenyl)-N-(7-oxo-4-phenylthieno[2,3-d]pyridazin-6(7H)-yl)acetamide]: the Emax worked out at 46% and the EC50 fell in the range of 1000 to 10000 nM.
Take `CN(C)c1ccc(CC(=O)Nn2nc(C(F)(F)F)c3ccccc3c2=O)cc1` [Example 47, 2-[4-(dimethylamino)phenyl]-N-[1-oxo-4-(trifluoromethyl)phthalazin-2(1H)-yl]acetamide]: the Emax worked out at 7% and the EC50 is above 10000 nM.
Take `Cc1ccc(-c2nn(NC(=O)CC3CC4CCC3C4)c(=O)c3ccccc23)cc1C` (racemic) [Example 163, (±)-2-(exo-bicyclo[2.2.1]hept-2-yl)-N-[4-(3,4-dimethylphenyl)-1-oxophthalazin-2(1H)-yl]acetamide]: the Emax was found to be 177% and the EC50 was below 100 nM.
As for `O=C(CC12CC3CC(CC(C3)C1)C2)Nn1nc(-c2ccccc2)c2sccc2c1=O` [Example 9, 2-(1-adamantyl)-N-(4-oxo-7-phenylthieno[2,3-d]pyridazin-5(4H)-yl)acetamide], the Emax amounted to 241% and the EC50 was in the range of 500 to 1000 nM.
In the case of `O=C(CC1(c2ccccc2)CC1)Nn1nc(C(F)(F)F)c2ccccc2c1=O` [Example 51, N-[1-oxo-4-(trifluoromethyl)phthalazin-2(1H)-yl]-2-(1-phenylcyclopropyl)acetamide], the Emax is -2% and the EC50 was above 10000 nM.
`O=C(CC1CC2CCC1C2)Nn1nc(-c2ccc(C(=O)O)cc2)c2ccccc2c1=O` (racemic) [Example 78, (±)-4-(3-{[(exo-bicyclo[2.2.1]heptan-2-yl)acetyl]amino}-4-oxo-3,4-dihydrophthalazin-1-yl)benzoic acid]: the Emax turned out to be 140% and the EC50 was 1000 to 10000 nM.
On to `O=C(Cc1cc(F)cc(F)c1)Nn1nc(-c2ccccc2)c2sccc2c1=O` [Example 10, 2-(3,5-difluorophenyl)-N-(4-oxo-7-phenylthieno[2,3-d]pyridazin-5(4H)-yl)acetamide], for which the Emax worked out at 179% and the EC50 lay in the range of 1000 to 10000 nM.
The like results for `CC(C)(C)c1nn(NC(=O)CC2CC3CCC2C3)c(=O)c2ccccc12` (racemic) [Example 63, (±)-2-(exo-bicyclo[2.2.1]heptan-2-yl)-N-(4-tert-butyl-1-oxophthalazin-2(1H)-yl)acetamide] were, in that order, 160% and below 100 nM.
Take `O=C(CCc1ccccc1)Nn1nc(C(F)(F)F)c2ccccc2c1=O` [Example 50, N-[1-oxo-4-(trifluoromethyl)phthalazin-2(1H)-yl]-3-phenylpropanamide]: the Emax was found to be 116% and the EC50 is above 10000 nM.
Turning to `Cc1ccc(-c2nn(NC(=O)Cc3cc(F)cc(F)c3)c(=O)c3ccccc23)cc1` [Example 136, 2-(3,5-difluorophenyl)-N-[4-(4-methylphenyl)-1-oxophthalazin-2(1H)-yl]acetamide], the Emax worked out at 130% and the EC50 is below 100 nM.

What is called EC50 is the concentration giving half of the maximal effect.
